Values after ≈ are worked out from the molar mass of the structure shown. Like-named read-outs stand apart in the source and are kept apart here.
What was measured:
[1] = test system: S. agalactiae (group B) ATCC 12400; experiment: MIC, microdilution method (9.1); type: cell-based, Streptococcus agalactiae; details: Streptococcus agalactiae, ATCC12400, 18 h, read-out: MIC
In short: (§1)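 Each strain is grown in Mueller Hinton broth with indolic compounds at twofold increments (final 0.50-128 mg/L), starting from 5×10^5 CFU/ml. Plates incubate at 37° C. in ambient air, as set out by CLSI M07-A8.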

[2] = test system: S. pyogenes (group A) CIP 104226; experiment: MIC, microdilution method (9.1); type: cell-based, Streptococcus pyogenes; details: Streptococcus pyogenes, CIP104226, 18 h, read-out: MIC
In short: as §1

S. mitis CIP 103335 = experiment: MIC, microdilution method (9.1); type: cell-based, Streptococcus mitis; details: Streptococcus mitis, CIP103335, 18 h, read-out: MIC
In short: as §1

S. aureus ATCC 29213 = experiment: MIC, microdilution method (9.1); type: cell-based, Staphylococcus aureus; details: Staphylococcus aureus, ATCC29213, read after 18 h, read-out: MIC
In short: as §1

[3] = test system: S. aureus ATCC 33592 (MRSA); experiment: MIC, microdilution method (9.1); type: cell-based, Staphylococcus aureus; details: Staphylococcus aureus, read after 18 h, read-out: MIC
In short: as §1

[4] = test system: S. aureus ATCC 106414 (VISA); experiment: MIC, microdilution method (9.1); type: cell-based, Staphylococcus aureus; details: Staphylococcus aureus, read after 18 h, read-out: MIC
In short: as §1

[5] = test system: S. aureus CIP 65.25 (MRSA); experiment: MIC, microdilution method (9.1); type: cell-based, Staphylococcus aureus; details: Staphylococcus aureus, read after 18 h, read-out: MIC
In short: as §1

S. aureus SA-1199B = experiment: MIC, microdilution method (9.1); type: cell-based, Staphylococcus aureus; details: Staphylococcus aureus, SA1199B, 18 h
In short: as §1

S. aureus ATCC 9144 = experiment: MIC, microdilution method (9.1); type: cell-based, Staphylococcus aureus; details: Staphylococcus aureus, ATCC9144, read after 18 h, read-out: MIC
In short: as §1

S. aureus ATCC 6538 = experiment: MIC, microdilution method (9.1); type: cell-based, Staphylococcus aureus; details: Staphylococcus aureus, ATCC6538, read after 18 h, read-out: MIC
In short: as §1

S. aureus CIP 103428 = experiment: MIC, microdilution method (9.1); type: cell-based, Staphylococcus aureus; details: Staphylococcus aureus, CIP103428, read after 18 h, read-out: MIC
In short: as §1

S. aureus ATCC 25923 = experiment: MIC, microdilution method (9.1); type: cell-based, Staphylococcus aureus; details: Staphylococcus aureus, ATCC25923, read after 18 h, read-out: MIC
In short: as §1

S. aureus CIP 65.6 = experiment: MIC, microdilution method (9.1); type: cell-based, Staphylococcus aureus; details: Staphylococcus aureus, CIP65, read after 18 h, read-out: MIC
In short: as §1

S. pneumoniae ATCC 6303 = experiment: MIC, microdilution method (9.1); type: cell-based, Streptococcus pneumoniae; details: Streptococcus pneumoniae, ATCC6303, 10% sheep blood, 5% CO2, 18 h, read-out: MIC
In short: (§2)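 Mueller Hinton broth cultures at 5×10^5 CFU/ml final were exposed to doubling concentrations of compound from 0.50 to 128 mg/L. Incubation: 37° C., ambient atmosphere. Method per CLSI M07-A8; blood supplement and CO2 reserved for fastidious organisms.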

[6] = test system: HCT116 (human colon tumor); experiment: In vitro cytotoxicity; type: cell-based; details: HCT-116, HCT116, from 100 μM to 0.005 μM in DMSO, duplicate
E. faecium CIP 54.32 = experiment: MIC, microdilution method (9.1); type: cell-based, Enterococcus faecium; details: Enterococcus faecium, CIP54, 18 h, read-out: MIC
In short: as §1

E. faecalis ATCC 29212 = experiment: MIC, microdilution method (9.1); type: cell-based, Enterococcus faecalis; details: Enterococcus faecalis, ATCC29212, 18 h, read-out: MIC
In short: as §1

[7] = test system: S. epidermidis ATCC 12228; experiment: MIC, microdilution method (9.1); type: cell-based, Staphylococcus epidermidis; details: Staphylococcus epidermidis, ATCC12228, read after 18 h, read-out: MIC
In short: as §1

[8] = test system: S. epidermidis CIP 103627; experiment: MIC, microdilution method (9.1); type: cell-based, Staphylococcus epidermidis; details: Staphylococcus epidermidis, CIP103627, read after 18 h, read-out: MIC
In short: as §1

S. epidermidis CIP 81.55 = experiment: MIC, microdilution method (9.1); type: cell-based, Staphylococcus epidermidis; details: Staphylococcus epidermidis, CIP81, read after 18 h, read-out: MIC
In short: as §1

[9] = test system: Klebsiella pneumoniae API ATCC 35657; experiment: MIC, microdilution method (9.1); type: cell-based; details: ATCC35657, 18 h, read-out: MIC
In short: as §1

[10] = test system: Acinetobacter baumanii ATCC 19606; experiment: MIC, microdilution method (9.1); type: cell-based; details: Acinetobacter baumannii, ATCC19606, 18 h, read-out: MIC
In short: as §1

[11] = test system: Bacillus subtilis CIP 5262; experiment: MIC, microdilution method (9.1); type: cell-based; details: CIP5262, 18 h, read-out: MIC
In short: as §1

[12] = test system: Escherichia coli ATCC 25922; experiment: MIC, microdilution method (9.1); type: cell-based; details: ATCC25922, 18 h
In short: as §1

[13] = test system: Serratia marcescens CIP 103551; experiment: MIC, microdilution method (9.1); type: cell-based; details: CIP103551, 18 h
In short: as §1

[14] = test system: Haemophilus influenzae ATCC 49766; experiment: MIC, microdilution method (9.1); type: cell-based
In short: as §2

[15] = test system: Enterobacter cloacae ATCC13047; experiment: MIC, microdilution method (9.1); type: cell-based; details: 18 h
In short: as §1

[16] = test system: Pseudomonas aeruginosa CIP 5933; experiment: MIC, microdilution method (9.1); type: cell-based; details: CIP5933, 18 h, read-out: MIC
In short: as §1

[17] = test system: Listeria innocua CIP 80.11; experiment: MIC, microdilution method (9.1); type: cell-based; details: CIP80, 18 h, read-out: MIC
In short: as §1

S. pneumoniae ATCC 49619 = experiment: MIC, microdilution method (9.1); type: cell-based; details: Streptococcus pneumoniae, ATCC49619, 10% sheep blood, 5% CO2, 18 h
In short: as §2

[18] = test system: 29 bacterial strains belonging to 17 different species; experiment: MIC determination, overall statements on the bacterial panel; type: cell-based; details: summary of MIC results
Procedure: The microdilution method recommended by the Clinical and Laboratory Standard Institute [M07-A8, Vol. 29, No. 2] was used. The activity of indolic compounds was tested against 29 bacterial strains belonging to 17 different species and 12 different genera (Staphylococcus, Streptococcus, Enterococcus, Listeria, Bacillus, Haemophilus, Escherichia, Klebsiella, Enterobacter, Serratia, Pseudomonas, and Acinetobacter). Bacterial inocula were prepared in Mueller Hinton broth (MH2, bioMérieux, Marcy L'Etoile, France), supplemented with 10% sheep blood for fastidious species (i.e., Streptococcus pneumoniae and Haemophilus influenzae). They were dispensed in 96 well microtiter plates (5×10^5 CFU/ml of final inoculum). Indolic compounds were added to the wells as to obtain two-fold serial concentrations (0.50-128 mg/L of final concentrations). Plates were incubated at 37° C. in ambient air, or at 37° C. in 5% CO2 enriched atmosphere for fastidious species. […] Drug-free cultures served as growth controls. Cultures receiving gentamicin, ciprofloxacin or cefotaxime served as positive controls.

SMILES | MIC [1] [µg/mL] | MIC [2] [µg/mL] | MIC (S. mitis CIP 103335) [µg/mL] | MIC (S. aureus ATCC 29213) [µg/mL] | MIC [3] [µg/mL] | MIC [4] [µg/mL] | MIC [5] [µg/mL] | MIC (S. aureus SA-1199B) [µg/mL] | MIC (S. aureus ATCC 9144) [µg/mL] | MIC (S. aureus ATCC 6538) [µg/mL] | MIC (S. aureus CIP 103428) [µg/mL] | MIC (S. aureus ATCC 25923) [µg/mL] | MIC (S. aureus CIP 65.6) [µg/mL] | MIC (S. pneumoniae ATCC 6303) [µg/mL] | MIC (E. faecium CIP 54.32) [µg/mL] | MIC (E. faecalis ATCC 29212) [µg/mL] | MIC [7] [µg/mL] | MIC [8] [µg/mL] | MIC (S. epidermidis CIP 81.55) [µg/mL] | MIC [9] [µg/mL] | further results
CC(C)(C)OC(=O)NCC(NC(=O)c1ccccc1)c1c[nH]c2ccc(Br)cc12 (centres unmarked) [Compound 8, t-Butyl (2-benzamido-2-(5-bromo-1H-indol-3-yl)ethyl) carbamate] | > 128 | > 128 | > 128 | > 128 | > 128 | > 128 | > 128 | > 128 | > 128 | > 128 | > 128 | > 128 | > 128 | > 128 | > 128 | > 128 | > 128 | > 128 | > 128 | > 128 | IC50 ([6]; first value): 6.14 µM; IC50 ([6]; second value): 7.33 µM; MIC [10]: > 128 µg/mL; MIC [11]: > 128 µg/mL; MIC [12]: > 128 µg/mL; MIC [13]: > 128 µg/mL; MIC ([14]; ATCC49766, Haemophilus influenzae ATCC 49766, 10% sheep blood, 5% CO2, 18 h, read-out: MIC): > 128 µg/mL; MIC [15]: > 128 µg/mL; MIC [16]: > 128 µg/mL; MIC [17]: > 128 µg/mL; MIC (S. pneumoniae ATCC 49619): > 128 µg/mL; intrinsic antibacterial activity (in words) [18]: lack of intrinsic antibacterial activity
CC(C)(C)OC(=O)NCC(NC(=O)C(F)(F)F)c1c[nH]c2ccc(Br)cc12 (centres unmarked) [Compound 9, tert-Butyl (2-(5-bromo-1H-indol-3-yl)-2-(2,2,2-trifluoroacetamido)ethyl)carbamate] | > 128 | > 128 | > 128 | 64 (≈ 142 µM) | 128 (≈ 284 µM) | 128 (≈ 284 µM) | 128 (≈ 284 µM) | 128 (≈ 284 µM) | > 128 | 128 (≈ 284 µM) | 128 (≈ 284 µM) | > 128 | 128 (≈ 284 µM) | > 128 | > 128 | > 128 | > 128 | > 128 | > 128 | > 128 | MIC [10]: > 128 µg/mL; MIC [11]: 128 µg/mL (≈ 284 µM); MIC [12]: > 128 µg/mL; MIC [13]: > 128 µg/mL; MIC ([14]; Haemophilus influenzae, ATCC49766, 18 h): > 128 µg/mL; MIC [15]: > 128 µg/mL; MIC [16]: > 128 µg/mL; MIC [17]: > 128 µg/mL; MIC (S. pneumoniae ATCC 49619): > 128 µg/mL; intrinsic antibacterial activity (in words) [18]: lack of intrinsic antibacterial activity
